Each block holds one molecule with its values, some of them ahead of it.
Experiments:
Trypsin = conditions: cited from earlier work
γ-secretase = γ-secretase (Homo sapiens, UniProt P49768); experiment: Aβ sandwich ELISA in supernatants of CHO cells overexpressing human APP and presenilin-1; type: cell-based; conditions: for Modulation of γ-secretase activity (type): Aβ38/40/42 ELISA, 0.1-40 μM
Protocol: One-step reactions yielded the desired products in both cases. […] Synthesized compounds were tested for their ability to modulate the γ-secretase product spectrum as previously described. CHO cells with stable overexpression of human APP and presenilin-1 were treated with increasing concentrations of 3 and 4. Subsequently, concentrations of secreted Aβ peptides were detected in cell supernatants by sandwich ELISA using C-terminus specific antibodies that distinguish between Aβ38, Aβ40, and Aβ42 peptide species. […] This pattern of inverse γ-secretase modulation has previously been observed, e.g. with derivatives of the non-steroidal anti-inflammatory drug indomethacin [35]. […] Compounds 3 and 4 can serve as tool compounds and – more importantly – as starting points for an optimization of the pharmacological profile by structural modification. […]
Figure S5. Modulation of γ-secretase activity by designed compounds 3 (A) and 4 (B). Both […]
higher levels of Aβ42. Concentrations of secreted Ab peptides were detected in cell supernatants by sandwich ELISA using C-terminus specific antibodies that distinguish between Aβ38, Aβ40, and Aβ42 peptide species as previously described.

other GPCRs in the panel = experiment: Cerep panel, other human GPCRs; type: cell-based; conditions: remaining GPCRs of the 30-receptor panel
hH3R = hH3R (Homo sapiens, UniProt Q9Y5N1); experiment: Competitive binding, displacement of [3H]Nα-methylhistamine at hH3R; conditions: averaged over four distinct tests
Protocol: (§1) In order to test for the hypothesis that a combination of the features – as found in compound 7 – might lead to hH4R affinity, compound 7 was selected for synthesis and testing. […] Binding affinity of compound 7 was determined in a competitive binding assay by measuring displacement of radioactively labeled [^3H]histamine bound to hH4R [42]. Membrane preparations of insect Sf9 cells expressing hH4R together with G-protein subunits Gαi2 and Gβ1γ2 were performed to yield the protein. A similar assay was used to measure the activity on hH3R (reference ligand: [^3H]N ^α-methylhistamine).

δ2 opioid receptor = δ2 opioid receptor (Homo sapiens, UniProt P41143); experiment: Cerep GPCR panel, antagonistic effect on δ2 opioid receptor; type: cell-based; conditions: n = 2
hH4R = biological target: T1, hH4R (Homo sapiens, UniProt Q9H3N8); experiment: Competitive binding, displacement of [3H]histamine, Sf9 membranes expressing hH4R; conditions: three measurements
T1 construct: made in house; host or cells: insect Sf9 cells (membrane preparations)
Protocol: as §1

5-HT1D receptor = 5-HT1D receptor (Homo sapiens, UniProt P28221); experiment: Cerep GPCR panel, antagonistic effect on 5-HT1D receptor; type: cell-based
κ opioid receptor = κ opioid receptor (Homo sapiens, UniProt P41145)
Thrombin = conditions: cited from earlier work
Trypsin (bovine) = biological target: Trypsin (bovine); design: method as in PMID 15771442; conditions: cited from earlier work

Sequence of 5-HT1D receptor (P28221 whole entry): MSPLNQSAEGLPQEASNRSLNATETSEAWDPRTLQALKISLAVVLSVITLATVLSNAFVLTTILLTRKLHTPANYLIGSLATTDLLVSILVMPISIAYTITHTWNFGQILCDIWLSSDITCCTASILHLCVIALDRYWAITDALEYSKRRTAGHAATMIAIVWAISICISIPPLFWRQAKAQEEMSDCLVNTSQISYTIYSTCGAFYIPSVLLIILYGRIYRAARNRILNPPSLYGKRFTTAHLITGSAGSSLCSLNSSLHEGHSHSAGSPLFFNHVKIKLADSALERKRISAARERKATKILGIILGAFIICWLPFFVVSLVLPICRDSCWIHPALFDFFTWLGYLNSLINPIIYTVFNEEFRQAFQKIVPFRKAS
Sequence of κ opioid receptor (P41145 whole entry): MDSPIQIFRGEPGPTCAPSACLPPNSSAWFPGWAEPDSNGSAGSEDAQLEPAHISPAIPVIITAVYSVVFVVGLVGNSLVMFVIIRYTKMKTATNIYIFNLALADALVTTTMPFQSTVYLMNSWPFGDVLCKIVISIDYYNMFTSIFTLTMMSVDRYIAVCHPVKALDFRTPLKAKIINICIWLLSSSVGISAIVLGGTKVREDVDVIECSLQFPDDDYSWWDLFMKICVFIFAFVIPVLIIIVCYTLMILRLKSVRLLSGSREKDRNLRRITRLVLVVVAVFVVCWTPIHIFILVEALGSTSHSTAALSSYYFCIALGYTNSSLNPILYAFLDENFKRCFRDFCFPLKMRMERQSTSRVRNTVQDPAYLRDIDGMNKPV
Sequence of δ2 opioid receptor (P41143 whole entry): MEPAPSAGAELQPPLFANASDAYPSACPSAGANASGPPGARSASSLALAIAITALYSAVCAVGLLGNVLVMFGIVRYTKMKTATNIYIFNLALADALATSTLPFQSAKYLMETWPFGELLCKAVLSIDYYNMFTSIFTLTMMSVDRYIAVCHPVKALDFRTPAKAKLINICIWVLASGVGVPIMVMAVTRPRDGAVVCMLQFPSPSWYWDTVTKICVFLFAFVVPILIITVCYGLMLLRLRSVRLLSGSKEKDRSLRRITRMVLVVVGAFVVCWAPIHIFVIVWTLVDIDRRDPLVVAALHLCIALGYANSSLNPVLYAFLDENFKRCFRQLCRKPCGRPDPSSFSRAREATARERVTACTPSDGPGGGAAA
Sequence of hH3R (Q9Y5N1 whole entry): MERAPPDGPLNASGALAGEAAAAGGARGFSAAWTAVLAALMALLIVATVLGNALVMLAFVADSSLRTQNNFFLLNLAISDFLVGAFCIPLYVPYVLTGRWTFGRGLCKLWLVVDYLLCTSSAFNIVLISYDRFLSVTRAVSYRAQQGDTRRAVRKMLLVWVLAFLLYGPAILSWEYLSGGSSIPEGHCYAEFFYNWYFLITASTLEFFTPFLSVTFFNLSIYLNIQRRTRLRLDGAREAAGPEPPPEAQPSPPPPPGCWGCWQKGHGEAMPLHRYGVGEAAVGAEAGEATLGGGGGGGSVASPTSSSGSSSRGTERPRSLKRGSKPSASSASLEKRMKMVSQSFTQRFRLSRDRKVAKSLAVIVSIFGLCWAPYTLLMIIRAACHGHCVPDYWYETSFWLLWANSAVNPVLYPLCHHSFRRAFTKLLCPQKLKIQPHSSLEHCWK

SMILES: CN(C)C(=O)COC(=O)Cc1ccc(OC(=O)c2ccc(NC(=N)N)cc2)cc1 [Camostat]
Ki (Trypsin): 50.6 nM

SMILES: CN[C@H](Cc1ccccc1)C(=O)N1CCC[C@H]1C(=O)N[C@H](C=O)CCCN=C(N)N [Efegatran]
Ki (Thrombin): 18 nM
Ki (Trypsin (bovine)): 9.1 nM

SMILES: N=C(N)Nc1ccc(C(=O)Oc2ccc(SCCN3C(=O)CCC3=O)cc2)cc1 [Patamostat]
IC50 (Trypsin): 39 nM
IC50 (Thrombin): 1900 nM

SMILES: CC1=CCN(C(=O)C(Cc2cccc(C(=N)N)c2)NS(=O)(=O)c2ccc3c(c2)CN(C)CC3)C(C(=O)O)C1 (stereo not drawn) [UK-156406]
Ki (Trypsin): 26 nM
Ki (Thrombin): 0.46 nM

Now from value to molecule, other results behind:

Modulation of γ-secretase activity (type) (γ-secretase): inverse modulators
Aβ38 levels (γ-secretase; secreted Aβ38, CHO cells, increasing concentrations): decrease
Aβ42 levels (γ-secretase; secreted Aβ42, CHO cells, increasing concentrations): dose-dependent increase
SMILES: COc1cc(-n2c(C)ccc2C)c(OC)cc1NC(=O)c1ccccc1 [Compound 3]

Modulation of γ-secretase activity (type) (γ-secretase): inverse modulators
SMILES: COc1ccc(N2CCN(C(=O)c3ccc(-c4cc(C(F)(F)F)ccc4Cl)o3)CC2)cc1 [Compound 4]

Ki (hH3R): 466000 ± 209000 nM
residual activity of the receptor (δ2 opioid receptor): 76%
Ki (hH4R): 436000 ± 137000 nM
residual activity of the receptor (5-HT1D receptor; antagonistic effect, n = 2): 62%
agonistic effect, % of the effect of the reference agonist U50488 (κ opioid receptor): 21%
SMILES: Clc1cccc(-c2cn(CCOCCN3CCNCC3)nn2)c1 [Compound 7]
response at other GPCRs in the panel (other GPCRs in the panel): only weak responses in the single digit or low double-digit percent range

IC50 (5-HT1D receptor; reference compound): 1100 nM
SMILES: CSc1ccc2c(c1)C(N1CCN(C)CC1)Cc1ccccc1S2 (stereo not drawn) [methiothepin, reference compound]

Reference: article PMC3280956, “DOGS: Reaction-Driven de novo Design of Bioactive Compounds” (PLoS Computational Biology, 2012)
